Key:
[1] = test system: antibodies in sera from SARS patients (sera 1a, 1b, 2, 6, 37, 62, London, SARS-yellow, SARS-green); format: binding, human; design: Binding of serum 6 to linear peptides of protein X1 of SARS-CoV Urbani / Binding of serum 37 to linear peptides of protein X1 of SARS-CoV Urbani / Binding of serum 6 to looped/cyclic peptide (PEPSCAN-ELISA) / Binding of serum 37 to looped/cyclic peptide (PEPSCAN-ELISA) / Binding of serum 37 to looped/cyclic peptides of protein X1 of SARS-CoV Urbani / Binding of serum 6 to linear peptides of protein X2 / Binding of serum 37 to linear peptides of protein X2 / Binding of serum 37 to looped/cyclic peptides of protein X2 of SARS-CoV Urbani / Binding of serum 6 to linear peptides of protein M of SARS-CoV Urbani / Binding of serum 37 to linear peptides of protein M of SARS-CoV Urbani / Binding of serum 6 to looped/cyclic peptides of protein M of SARS-CoV Urbani / Binding of serum 37 to looped/cyclic peptides of protein M of SARS-CoV Urbani / Binding of serum 6 to linear peptides of protein X3 of SARS-CoV Urbani / Binding of serum 37 to linear peptides of protein X3 of SARS-CoV Urbani / Binding of serum 37 to looped/cyclic peptides of protein X3 of SARS-CoV Urbani / Binding of serum 6 to linear peptides of protein X4 of SARS-CoV Urbani / Binding of serum 37 to linear peptides of protein X4 of SARS-CoV Urbani / Binding of serum 37 to looped/cyclic peptides of protein X4 of SARS-CoV Urbani / Binding of serum 6 to linear peptides of protein X5 of SARS-CoV Urbani / Binding of serum 37 to linear peptides of protein X5 of SARS-CoV Urbani / Binding of serum 37 to looped/cyclic peptides of protein X5 of SARS-CoV Urbani / Binding of serum 6 to linear peptides of protein N of SARS-CoV Urbani / Binding of serum 37 to linear peptides of protein N of SARS-CoV Urbani / Binding of serum 6 to linear peptide (PEPSCAN-ELISA) / Binding of serum 1a to looped/cyclic peptides of protein N of SARS-CoV Urbani / Binding of serum 1b to looped/cyclic peptides of protein N of SARS-CoV Urbani / Binding of serum 2 to looped/cyclic peptides of protein N of SARS-CoV Urbani / Binding of serum 6 to looped/cyclic peptides of protein N of SARS-CoV Urbani / Binding of serum 37 to looped/cyclic peptides of protein N of SARS-CoV Urbani / Binding of serum 62 to looped/cyclic peptides of protein N of SARS-CoV Urbani / Binding of serum London to looped/cyclic peptides of protein N of SARS-CoV Urbani / Binding of serum SARS-green to looped/cyclic peptides of protein N of SARS-CoV Urbani: unit not given here
[2] = test system: rabbit serum obtained by immunizing a rabbit with the SARS-CoV strain Frankfurt 1; format: binding; design: Binding of a rabbit serum to linear peptides / Binding of a rabbit serum to looped peptides / Rabbit serum linear peptides / Rabbit serum looped peptides / Binding of a rabbit serum to linear peptides of protein N of SARS-CoV Urbani (Rabbit serum linear peptides) / Binding of a rabbit serum to looped/cyclic peptides of protein N of SARS-CoV Urbani (Rabbit serum looped peptides): unit not given here
[3] = test system: control sera (pooled serum of ten healthy LUMC hospital workers; commercial negative donor pooled serum from the Dutch bloodbank); format: binding, human; design: Binding of Control serum LUMC to linear peptides / Binding of Control serum Blood-bank to linear peptides / Binding of Control serum LUMC to looped peptides / Binding of Control Serum Blood-Bank to Looped peptides / Binding of Control serum LUMC to linear peptides of the protein M of SARS-CoV Urbani / Binding of Control serum Blood-bank to linear peptides of the protein M of SARS-CoV Urbani / Binding of Control serum LUMC to looped peptides of the protein M of SARS-CoV Urbani / Binding of Control Serum Blood-Bank to Looped peptides of the protein M of SARS-CoV Urbani: unit not given here

TDSGFAAYNRYRIGN
Binding of serum 1a to linear peptides of protein M of SARS-CoV Urbani [1]: 0.6
Binding of serum 1a to looped/cyclic peptides of protein M of SARS-CoV Urbani [1]: 0.7
Binding of serum 1b to linear peptides of protein M of SARS-CoV Urbani [1]: 0.4
Binding of serum 1b to looped/cyclic peptides of protein M of SARS-CoV Urbani [1]: 0.5
Binding of serum 2 to linear peptides of protein M of SARS-CoV Urbani [1]: 0.5
Binding of serum 2 to looped/cyclic peptides of protein M of SARS-CoV Urbani [1]: 0.6
Binding of serum 6 to linear peptides of protein M of SARS-CoV Urbani [1]: 0.4
Binding of serum 6 to looped/cyclic peptides of protein M of SARS-CoV Urbani [1]: 0.9
Binding of serum 37 to linear peptides of protein M of SARS-CoV Urbani [1]: 0.4
Binding of serum 37 to looped/cyclic peptides of protein M of SARS-CoV Urbani [1]: 0.7
Binding of serum 62 to linear peptides of protein M of SARS-CoV Urbani [1]: 0.6
Binding of serum 62 to looped/cyclic peptides of protein M of SARS-CoV Urbani [1]: 0.7
Binding of serum London to linear peptides of protein M of SARS-CoV Urbani [1]: 0.3
Binding of serum London to looped/cyclic peptides of protein M of SARS-CoV Urbani [1]: 0.2
Binding of serum SARS-green to linear peptides of protein M of SARS-CoV Urbani [1]: 0.3
Binding of serum SARS-green to looped/cyclic peptides of protein M of SARS-CoV Urbani [1]: 0.1
Binding of serum SARS-yellow to linear peptides of protein M of SARS-CoV Urbani [1]: 0.0
Binding of serum SARS-yellow to looped/cyclic peptides of protein M of SARS-CoV Urbani [1]: 0.8
Rabbit serum linear peptides [2]: 0.0
Rabbit serum looped peptides [2]: 0.5
Binding of Control Serum Blood-Bank to Looped peptides of the protein M of SARS-CoV Urbani [3]: 0.6
Binding of Control serum Blood-bank to linear peptides of the protein M of SARS-CoV Urbani [3]: 0.7
Binding of Control serum LUMC to linear peptides of the protein M of SARS-CoV Urbani [3]: 0.3
Binding of Control serum LUMC to looped peptides of the protein M of SARS-CoV Urbani [3]: 0.7

TDTIVVTEGDGISTP
Binding of serum 1a to linear peptides of protein X1 of SARS-CoV Urbani [1]: 0.6
Binding of serum 1a to looped/cyclic peptides of protein X1 of SARS-CoV Urbani [1]: 0.4
Binding of serum 1b to linear peptides of protein X1 of SARS-CoV Urbani [1]: 0.5
Binding of serum 1b to looped/cyclic peptides of protein X1 of SARS-CoV Urbani [1]: 0.3
Binding of serum 2 to linear peptides of protein X1 of SARS-CoV Urbani [1]: 0.4
Binding of serum 2 to looped/cyclic peptides of protein X1 of SARS-CoV Urbani [1]: 0.2
Binding of serum 6 to linear peptides of protein X1 of SARS-CoV Urbani [1]: 0.5
Binding of serum 6 to looped/cyclic peptides of protein X1 of SARS-CoV Urbani [1]: 0.2
Binding of serum 37 to linear peptides of protein X1 of SARS-CoV Urbani [1]: 0.5
Binding of serum 37 to looped/cyclic peptides of protein X1 of SARS-CoV Urbani [1]: 0.3
Binding of serum 62 to linear peptides of protein X1 of SARS-CoV Urbani [1]: 0.4
Binding of serum 62 to looped/cyclic peptides of protein X1 of SARS-CoV Urbani [1]: 0.3
Binding of serum London to linear peptides of protein X1 of SARS-CoV Urbani [1]: 0.2
Binding of serum London to looped/cyclic peptides of protein X1 of SARS-CoV Urbani [1]: 0.1
Binding of serum SARS-green to linear peptides of protein X1 of SARS-CoV Urbani [1]: 0.3
Binding of serum SARS-green to looped/cyclic peptides of protein X1 of SARS-CoV Urbani [1]: 0.2
Binding of serum SARS-yellow to linear peptides of protein X1 of SARS-CoV Urbani [1]: 0.2
Binding of serum SARS-yellow to looped/cyclic peptides of protein X1 of SARS-CoV Urbani [1]: 0.4
Binding of a rabbit serum to linear peptides [2]: 0.1
Binding of a rabbit serum to looped peptides [2]: 0.3
Binding of Control Serum Blood-Bank to Looped peptides [3]: 0.4
Binding of Control serum Blood-bank to linear peptides [3]: 0.5
Binding of Control serum LUMC to linear peptides [3]: 0.5
Binding of Control serum LUMC to looped peptides [3]: 0.4

TEGDGISTPKLKEDY
Binding of serum 1a to linear peptides of protein X1 of SARS-CoV Urbani [1]: 0.5
Binding of serum 1a to looped/cyclic peptides of protein X1 of SARS-CoV Urbani [1]: 0.5
Binding of serum 1b to linear peptides of protein X1 of SARS-CoV Urbani [1]: 0.3
Binding of serum 1b to looped/cyclic peptides of protein X1 of SARS-CoV Urbani [1]: 0.4
Binding of serum 2 to linear peptides of protein X1 of SARS-CoV Urbani [1]: 0.4
Binding of serum 2 to looped/cyclic peptides of protein X1 of SARS-CoV Urbani [1]: 0.5
Binding of serum 6 to linear peptides of protein X1 of SARS-CoV Urbani [1]: 0.2
Binding of serum 6 to looped/cyclic peptides of protein X1 of SARS-CoV Urbani [1]: 0.4
Binding of serum 37 to linear peptides of protein X1 of SARS-CoV Urbani [1]: 0.4
Binding of serum 37 to looped/cyclic peptides of protein X1 of SARS-CoV Urbani [1]: 0.4
Binding of serum 62 to linear peptides of protein X1 of SARS-CoV Urbani [1]: 0.3
Binding of serum 62 to looped/cyclic peptides of protein X1 of SARS-CoV Urbani [1]: 0.4
Binding of serum London to linear peptides of protein X1 of SARS-CoV Urbani [1]: 0.2
Binding of serum London to looped/cyclic peptides of protein X1 of SARS-CoV Urbani [1]: 0.2
Binding of serum SARS-green to linear peptides of protein X1 of SARS-CoV Urbani [1]: 0.1
Binding of serum SARS-green to looped/cyclic peptides of protein X1 of SARS-CoV Urbani [1]: 0.3
Binding of serum SARS-yellow to linear peptides of protein X1 of SARS-CoV Urbani [1]: 0.0
Binding of serum SARS-yellow to looped/cyclic peptides of protein X1 of SARS-CoV Urbani [1]: 0.3
Binding of a rabbit serum to linear peptides [2]: 0.1
Binding of a rabbit serum to looped peptides [2]: 0.5
Binding of Control Serum Blood-Bank to Looped peptides [3]: 0.5
Binding of Control serum Blood-bank to linear peptides [3]: 0.2
Binding of Control serum LUMC to linear peptides [3]: 0.2
Binding of Control serum LUMC to looped peptides [3]: 0.5

TEVYYQLESTQITTD
Binding of serum 1a to linear peptides of protein X1 of SARS-CoV Urbani [1]: 0.8
Binding of serum 1a to looped/cyclic peptides of protein X1 of SARS-CoV Urbani [1]: 0.5
Binding of serum 1b to linear peptides of protein X1 of SARS-CoV Urbani [1]: 0.8
Binding of serum 1b to looped/cyclic peptides of protein X1 of SARS-CoV Urbani [1]: 0.5
Binding of serum 2 to linear peptides of protein X1 of SARS-CoV Urbani [1]: 0.5
Binding of serum 2 to looped/cyclic peptides of protein X1 of SARS-CoV Urbani [1]: 0.2
Binding of serum 6 to linear peptides of protein X1 of SARS-CoV Urbani [1]: 0.5
Binding of serum 6 to looped/cyclic peptides of protein X1 of SARS-CoV Urbani [1]: 0.3
Binding of serum 37 to linear peptides of protein X1 of SARS-CoV Urbani [1]: 0.9
Binding of serum 37 to looped/cyclic peptides of protein X1 of SARS-CoV Urbani [1]: 0.5
Binding of serum 62 to linear peptides of protein X1 of SARS-CoV Urbani [1]: 0.6
Binding of serum 62 to looped/cyclic peptides of protein X1 of SARS-CoV Urbani [1]: 0.4
Binding of serum London to linear peptides of protein X1 of SARS-CoV Urbani [1]: 0.4
Binding of serum London to looped/cyclic peptides of protein X1 of SARS-CoV Urbani [1]: 0.2
Binding of serum SARS-green to linear peptides of protein X1 of SARS-CoV Urbani [1]: 0.5
Binding of serum SARS-green to looped/cyclic peptides of protein X1 of SARS-CoV Urbani [1]: 0.3
Binding of serum SARS-yellow to linear peptides of protein X1 of SARS-CoV Urbani [1]: 0.6
Binding of serum SARS-yellow to looped/cyclic peptides of protein X1 of SARS-CoV Urbani [1]: 0.3
Binding of a rabbit serum to linear peptides [2]: 0.1
Binding of a rabbit serum to looped peptides [2]: 0.4
Binding of Control Serum Blood-Bank to Looped peptides [3]: 0.4
Binding of Control serum Blood-bank to linear peptides [3]: 0.5
Binding of Control serum LUMC to linear peptides [3]: 0.5
Binding of Control serum LUMC to looped peptides [3]: 0.4
